A short description of series [1]: Macrophage toxicity, resazurin assay. It is filed as cell-based. The following applies: human, differentiated THP-1 cells (macrophages), differentiated THP‐1 macrophages, read-out: Cytotoxicity, THP‐1, IC50±SD. On the procedure:
Macrophage toxicity: Toxicity of the compounds on the differentiated host THP‐1 cells were also evaluated. As mentioned, duplicate plates of differentiated THP‐1 cells were prepared during the anti‐amastigote assay. These plates were incubated for 72 hours to differentiate, instead of replacing the growth medium with parasite‐containing medium after 48 hours. […] Blanks were growth medium without cells. The treated plates were incubated for 72 hours, followed by the addition of 50 μL of resazurin solution (0.01 % in PBS) to each well and 24‐hour incubation.

For series [2], the system named is L. donovani 9515 amastigotes. Nature of the series: Anti‐amastigote assay, intramacrophage (THP‐1), resazurin. The following applies: for Selectivity index SI4: L. donovani 9515: IC50 THP‐1/IC50 amastigote; for IC50: Leishmania donovani, THP-1, L. donovani 9515 intramacrophage amastigotes, read-out: Anti‐amastigote activity, IC50 ±SD, 9515. It is filed as cell-based, Leishmania donovani. The protocol:
(§1) For the anti‐amastigote assay, differentiated plates were carefully washed with PBS, followed by the addition of 200 μL of stationary phase promastigotes in RPMI 1640 medium with 2 % FBS. An MOI of 30 : 1 was used for all three Leishmania strains. […] The treated plates were incubated for 72 hours. After incubation, the plates were gently washed three times with PBS to remove any remaining extracellular parasites. The wells were then treated with 20 μL of 0.05 % sodium dodecyl sulphate in PBS for 30 seconds to lyse the host macrophages. Lysis was terminated by adding 180 μL promastigote growth medium with 10 % FBS. […] Absorbance measurements, calculations and IC50 determinations were performed as described for the antipromastigote assay (Supporting Information).

For a further series, the system named is HEK‐293 cells. Briefly: Basal cytotoxicity, resazurin assay. The following applies: read-out: Cytotoxicity, HEK‐293, IC50±SD; HEK‐293 cells, resazurin.
A short description of series [3]: Basal cytotoxicity, resazurin assay. The following applies: human, HEK-293 cells (ATCC CRL 1573), Cytotoxicity, HEK‐293, IC50±SD, HEK‐293 cells, resazurin.
In series [4] the test system is L. major IR‐173 promastigotes. Briefly: Antipromastigote assay (resazurin). The settings on record: Leishmania major, read-out: Antipromastigote activity, IC50 ±SD, IR‐173. It is filed as cell-based. The protocol:
(§2) Antipromastigote assay: The antipromastigote activity of synthesized compounds was evaluated as described previously by […] al.[47] using L. donovani 9515 (MHOM/IN/95/9515) and L. major IR-173 (MHOM/IR/-173). […] Al dri c h) […] The prom astigotes were […] 25 °C. […] Therm ofisher Scientific) in the presence of: […] com pounds for IC50 determination. […] blank. […] Em etine served as the standard cytotoxic drug. […] References […]

For series [5], the system named is L. donovani 9515 promastigotes. Nature of the series: Antipromastigote assay (resazurin). Type of series: cell-based, Leishmania donovani. The following applies: for IC50: Leishmania donovani, read-out: Antipromastigote activity, IC50 ±SD, 9515. The protocol: as §2
The conditions of series [6]: cited from earlier work.
The conditions of series [7]: during therapy ref 19; cited from earlier work.
Series [8] relates to L. major IR‐173 amastigotes. Nature of the series: Anti‐amastigote assay, intramacrophage (THP‐1), resazurin. Type of series: cell-based, Leishmania major. The following applies: Leishmania major, THP-1, L. major IR‐173 intramacrophage amastigotes; read-out: Anti‐amastigote activity, IC50 ±SD, IR‐173. The protocol:
as §1

Another series in a line: in vitro. The settings on record: human, Cytotoxicity, HEK‐293, IC50±SD.

Molecules are shown by their SMILES. In brackets after ≈: the same amount, converted by molar mass.

Turning to `CC(C)c1ccc(Cn2cc(CN3C(=O)CN(/N=C/c4ccc([N+](=O)[O-])o4)C3=O)nn2)cc1` [Compound 13], the IC50 at 72 h in series [1] was over 100 µM. Moreover, the “Selectivity index SI2” value in series [2] (L. donovani 9515: IC50 HEK‐293/IC50 amastigote) worked out at 1. For the same compound, the “Selectivity index SI4” value in series [2] was over 11. In addition, the IC50 in series [2] was 9.13 µM; with HEK‐293 cells, 7.27 ± 0.93 µM; in series [3], under 10 µM; in [4] it was 0.57 ± 0.01 µM. In addition, the “Antipromastigote activity, IC50 ±SD, 9515” value in series [5] was “inactive”.
Take `O=C1CN(/N=C/c2ccc([N+](=O)[O-])o2)C(=O)N1` [NFT, nitrofurantoin, reference compound]: the “solubility in DMF” value in series [6] (DMF) is given as 50 mg/mL (≈ 210 mM). Besides, in series [6] (DMSO), the “solubility in DMSO” value is listed as 25 mg/mL (≈ 105 mM). The solubility in water in series [6] (water ref 26) was 0.19 mg/mL (≈ 0.798 mM). Further, the IC50 at 72 h in series [1] was over 100 µM. In addition, in series [7], the excreted unchanged is reported as 33%. Further, the “Selectivity index SI4” value in [2] is given as over 10. Further, the IC50 is 9.92 ± 0.11 µM in series [2]; over 10 µM in series [8]; over 100 µM in the series “in vitro”; over 10 µM in series [4]; over 10 µM in series [5].
Turning to `O=C(N/N=C/c1ccc([N+](=O)[O-])o1)c1ccc(O)cc1` [NFX, nifuroxazide, reference compound], the IC50 at 72 h in series [1] is over 100 µM. Besides, in series [2], the “Selectivity index SI4” value is over 14. For the same compound, the “Specificity index SpI2” value in series [2] (L. donovani 9515: IC50 promastigote/IC50 amastigote) was found to be 0.6. For the same compound, the half-maximal inhibitory concentration (IC50) in series [2] is 7.29 ± 0.39 µM; in series [8], over 10 µM; in the series “in vitro”, over 100 µM; in series [4] it was over 10 µM; in series [5], 4.48 ± 0.1 µM.

(Values after paper PMC9322565 (Chemmedchem, 2022).)
